The values that follow come from EPA's ToxValDB 9.5.

Molecules are shown by their SMILES. Converted amounts (≈) assume the structure as drawn. “And” between values parts separate entries of the source, which are not always exact repeats. Equal entries are not always repeated.

Series [1] concerns Cavia sp. Conditions: acute; inhalation; FTD Hartley.
Series [2] relates to Monkey. Conditions: subchronic; duration: 3 months; inhalation; Cynomolgus.
Series [3] has as its system Mus musculus. Particulars: for LC50 / LD50: acute.
Series [4] deals with Rattus norvegicus.
Series [5] relates to Rattus norvegicus. Conditions: subchronic; duration: 63 days; oral; gavage; M; Sprague-Dawley; Clinical Observation: Piloerection SalivationMatted fur + Body Weight Changes: decrease.
Series [6] relates to Rattus norvegicus. Briefly: LC0; higher = less toxic. Particulars: acute; Inhalation; Wistar.
For series [7], the system named is Oryctolagus sp. Kind of series: LD0; higher = less toxic. Particulars: acute; dermal; occlusive; New Zealand.
Series [8] concerns Rattus norvegicus. Conditions: subchronic.
Series [9] has as its system Homo sapiens. Particulars: clinical; duration: 30 minutes; inhalation; M/F; respiratory.
The test system of series [10] is Rattus norvegicus. Conditions: subchronic; duration: 10 weeks; inhalation; M; Sprague-Dawley; respiratory.
Series [11] deals with Mus musculus. Particulars: subchronic; duration: 13 weeks; inhalation; intermittent; Nasal mucosa: Inflammation.
For series [12], the system named is Sus scrofa. Particulars: chronic; duration: 105 days; oral; diet; Not specified; Gastrointestinal system: Disturbance.
Series [13] concerns Oryctolagus sp.
Series [14] concerns Mus musculus. Kind of series: LD10; higher = less toxic. Particulars: acute; oral; BALB/cAnCr.
Series [15] deals with Cavia porcellus. Particulars: subchronic, inhalation, Guinea Pig.
The test system of series [16] is Rattus norvegicus. Particulars: subchronic; duration: 90 days; oral; gavage; M/F; Sprague-Dawley; Whole Body Effects.
The test system of series [17] is Mus musculus. Briefly: LC100; higher = less toxic. Conditions: acute; inhalation.
Where [18] appears, read: short-term, duration: 4 weeks, inhalation, M, Sprague-Dawley.
Setting [19] is: short-term, duration: 4 weeks, inhalation, Sprague-Dawley.
[20] abbreviates: inhalation, M, nasal lesions of the olfactory mucosa.
Setting [21] is: developmental, duration: 13 days, oral, gavage, New Zealand.
[22] abbreviates: reproduction developmental, duration: 13 days, oral, gavage, F, New Zealand.
Setting [23] is: developmental, duration: 10 days, oral, gavage, Crj:CD.
Setting [24] is: subchronic, duration: 35 days, inhalation, ICR.
Setting [25] is: subchronic, duration: 90 days, oral, gavage, Albino- not specified.

With `[C-]#[O+]` [Carbon monoxide], the LC50 in [1] is 2070 mg/m3 and ≥ 1830 mg/m3 and ≤ 2240 mg/m3; in series [3] (inhalation, NIH/Nmri Swiss albino), 2070 mg/m3 and ≥ 1830 mg/m3 and ≤ 2240 mg/m3. Moreover, the LOAEL in series [2] amounted to 115 mg/m3; in series [3] (reproduction developmental, duration: 7 days, inhalation, CD1, generation: F1) it was 143 mg/m3.

On to `Nc1ccccc1[N+](=O)[O-]` [2-Nitrobenzenamine], for which the no observed adverse effect level (NOAEL) in [4] (developmental, duration: 6 days, oral, gavage, Sprague-Dawley) was 600 mg/kg-day; in series [4] (reproduction developmental, duration: 6 days, oral, gavage, F, Sprague-Dawley), 100 mg/kg-day; in [4] (setting [18]) it was 9.8 mg/m3; in series [4] (setting [19]), 30 mg/m3; in [4] (short-term, duration: 14 days, oral, gavage, Sprague-Dawley), no less than 100 mg/kg-day; in [5], 50 mg/kg-day. Further, the figures for the LOAEL in series [4] (setting [18]) and in series [4] (setting [19]) were 93 mg/m3 and 73 mg/m3, respectively. The compound further registered an LC0 in [6] greater than 2530 mg/m3. Further, the LD0 in series [7] was greater than 7940 mg/kg.

Turning to `S` [Hydrogen sulfide], in [4] (acute, inhalation, Sprague-Dawley), the LC50 is 619 mg/m3 and ≥ 580 mg/m3 and ≤ 659 mg/m3. In addition, the NOAEL in series [4] (reproduction developmental, duration: 18 days, inhalation, F, Sprague-Dawley) turned out to be 112 mg/m3; in [4] (reproduction developmental, inhalation, Sprague-Dawley, generation: F0), 112 mg/m3; in series [4] (reproduction developmental, inhalation, Sprague-Dawley, generation: F1), 112 mg/m3; in series [8] (setting [20]), 13.9 mg/m3; in series [10], 13.9 mg/m3; in [11], 42 mg/m3. The compound also showed an NOAEL in [12] of 3.1 mg/kg-day. The lowest-observed-adverse-effect level (LOAEL) in series [8] (setting [20]) amounted to 41.7 mg/m3; in [9], 2.79 mg/m3.

Turning to `CNC=O` [N-Methylformamide], the LD50 in series [3] (oral, BALB/cAnCr) worked out at 2600 mg/kg; in series [4] (acute, oral) it was 4000 mg/kg. For the same compound, the results for the lowest-observed-adverse-effect level (LOAEL) in series [13] (setting [21]), in [13] (setting [22]) and in series [4] (setting [23]) were 50 mg/kg-day, 50 mg/kg-day and 75 mg/kg-day, respectively. The NOAEL amounted to 10 mg/kg-day in series [13] (setting [21]); 10 mg/kg-day in series [13] (setting [22]); 10 mg/kg-day in series [4] (setting [23]); 36.2 mg/m3 in series [4] (reproduction developmental, duration: 10 days, inhalation, F, Crl: CD BR); 0.12 mg/L in series [4] (short-term, duration: 2 weeks, inhalation, M, Crl:CD(SD)). In [14], the LD10 was 1800 mg/kg.

With `CCOCC` [Diethyl ether], the NOAEL in series [15] (duration: 7 weeks) amounted to 6.2 mg/L; in [15] (duration: 35 days), 3 mg/L; in series [3] (setting [24]), 3 mg/L; in series [13] (subchronic, duration: 7 weeks, inhalation), 6.2 mg/L; in [4] (subchronic, duration: 7 weeks, inhalation, Wistar), 6.2 mg/L; in [4] (subchronic, duration: 35 days, inhalation, Sprague-Dawley) it was 30 mg/L. Further, the NOAEL stood at 500 mg/kg-day in series [4] (setting [25]); 500 mg/kg-day in series [8] (oral, M/F, reduced body weight); 500 mg/kg-day in [16]. For the same compound, the lowest-observed-adverse-effect level (LOAEL) in [15] (duration: 35 days) stood at 30 mg/L; in [3] (setting [24]) it was 30 mg/L; in [4] (setting [25]) it was 2000 mg/kg-day; in [8] (oral, M/F, reduced body weight), 2000 mg/kg-day. Moreover, the LC50 in series [3] (inhalation) was 130 µg/mL (≈ 1750 µM); in series [3] (inhalation, C3H/HeCr), 98200 mg/m3 and 94900 mg/m3; in [3] (inhalation, C57BL/6), 199000 mg/m3 and 182000 mg/m3; in series [4] (acute, oral, Sprague-Dawley) it was 1710 mg/kg. Moreover, the 50% lethal dose (LD50) in [3] (injection, Intraperitoneal) worked out at 2420 mg/kg; in series [3] (injection, intravenous), 996 mg/kg. In [17], this compound came in with an LC100 of 128 mg/L.
